Structures can show the parent of a compound that is named as a salt.
assay: in vitro; conditions: rat, gh3-tre-luc cells, AC50 (uM) modified / 1000

Compared with C[C@H]1CC[C@]2(NC1)O[C@H]1C[C@H]3[C@@H]4CC[C@H]5C[C@@H](O[C@@H]6O[C@H](CO)[C@H](O[C@@H]7O[C@H](CO)[C@@H](O)[C@H](O[C@@H]8OC[C@@H](O)[C@H](O)[C@H]8O)[C@H]7O[C@@H]7O[C@H](CO)[C@@H](O)[C@H](O)[C@H]7O)[C@H](O)[C@H]6O)CC[C@]5(C)[C@H]4CC[C@]3(C)[C@H]1[C@@H]2C [alpha-Tomatine], C/C=C(/CC[C@@H](C)[C@H]1CC[C@H]2C3=CC[C@H]4[C@H](C)[C@@H](O)CC[C@]4(C)[C@H]3CC[C@]12C)C(C)C [Sitosterol alpha1] is higher in CC50 at 24 h: 2.38 µM for the first, > 50 µM for the second.

Cc1cc(C)c(/C=C2\C(=O)Nc3ccccc32)[nH]1 [SU-5416] and O=C1c2cccc(O)c2C(=O)c2c(O)cccc21 [Danthron] cannot be ordered by CC50 at 24 h: > 50 µM for the first, > 90 µM for the second.

CC(C#N)(CCC(=O)O)N=NC(C)(C#N)CCC(=O)O (centres unmarked) [4,4'-Diazene-1,2-diylbis(4-cyanopentanoic acid)] and CC[C@@H](C)[C@@H](N)C(=O)O [D-Isoleucine] cannot be ordered by CC50 at 24 h: > 90 µM for the first, > 50 µM for the second.

CC(=O)c1ccccc1[N+](=O)[O-] [2-Nitroacetophenone] and C=C(C)c1cccc(C(=C)C)c1 [1,3-Diisopropenylbenzene] cannot be ordered by CC50 at 24 h: > 90 µM for the first, > 90 µM for the second.

CC(Oc1cc(Cl)c(Cl)cc1Cl)C(=O)O (centres unmarked) [2-(2,4,5-Trichlorophenoxy)propionic acid] and Cc1cc(CC(=O)O)c(C)n1-c1ccc(Cl)cc1 [Clopirac] cannot be ordered by CC50 at 24 h: > 90 µM for the first, > 50 µM for the second.

CCSC(=O)N(CC)C1CCCCC1 [Cycloate] and O=C(N[C@H]1CN2CCC1CC2)c1ccc2c(c1)OCCO2 [PHA-00568487] cannot be ordered by CC50 at 24 h: > 90 µM for the first, > 90 µM for the second.

CSc1ccc(/C=C2/C(C)=C(CC(=O)O)c3cc(F)ccc32)cc1 [Sulindac sulfide] and CC(C)(O)c1cnn2c(-c3ccc(F)c(-c4c(F)cccc4C#N)c3)cnc2n1 [PharmaGSID_47330] cannot be ordered by CC50 at 24 h: > 50 µM for the first, > 90 µM for the second.

CN(C)CCCN [3-(Dimethylamino)propylamine] and CCO[Si](CCCNC(N)=O)(OCC)OCC [1-[3-(Triethoxysilyl)propyl]urea] cannot be ordered by CC50 at 24 h: > 90 µM for the first, > 90 µM for the second.

O=Cc1ccc(F)c(Br)c1 [3-Bromo-4-fluorobenzaldehyde] and CC#Cc1cc(C)nc(Nc2ccccc2)n1 [Mepanipyrim] cannot be ordered by CC50 at 24 h: > 90 µM for the first, > 90 µM for the second.

NCCc1c[nH]cn1 [Histamine] and CCCn1cc[n+](C)c1C [1,2-Dimethyl-3-propylimidazolium iodide] cannot be ordered by CC50 at 24 h: > 50 µM for the first, > 90 µM for the second.

Clc1ccc(Cn2c(CN3CCCC3)nc3ccccc32)cc1 [Clemizole hydrochloride] and CCCC1COC(Cn2cncn2)(c2ccc(Cl)cc2Cl)O1 (centres unmarked) [Propiconazole] cannot be ordered by CC50 at 24 h: > 20 µM for the first, 61 µM for the second.

C1CN(CCOCCN2CCOCC2)CCO1 [4,4'-(Oxydiethylene)bis(morpholine)] and COc1cc2c(cc1OC)CC(=O)N(CCCN(C)C[C@H]1Cc3cc(OC)c(OC)cc31)CC2 [Ivabradine hydrochloride] cannot be ordered by CC50 at 24 h: > 90 µM for the first, > 50 µM for the second.

SCCSCCS [2,2'-Sulfanediyldiethanethiol] and CCCCCCCCCCCCCCC [Pentadecane] cannot be ordered by CC50 at 24 h: > 90 µM for the first, > 90 µM for the second.

With CCOC(=O)[C@H](CCc1ccccc1)N[C@H]1CS[C@H](c2cccs2)CN(CC(=O)O)C1=O [Temocapril hydrochloride] the CC50 at 24 h was > 50 µM.

same assay, conditions: rat, gh3-tre-luc cells, AC50 (uM) modified / 1000, Tox21_110001=Tox21_112495; viability, 1 nM T3 present, 24 h

For C[C@]12CC[C@H]3[C@@H](CC=C4C[C@@H](O)CC[C@@]43C)[C@@H]1CC[C@@H]2O [Androstenediol], the CC50 at 24 h was > 50 µM.

same assay, conditions: rat, gh3-tre-luc cells, AC50 (uM) modified / 1000, Tox21_110001=Tox21_112703; viability, 1 nM T3 present, 24 h

With CN(C)C(Cc1ccccc1)c1ccccc1 (centres unmarked) [N,N-Dimethyl-1,2-diphenylethanamine] the CC50 at 24 h was > 50 µM.

same assay, conditions: rat, gh3-tre-luc cells, AC50 (uM) modified / 1000, Tox21_110001=Tox21_113608; viability, 1 nM T3 present, 24 h

With O=[P@]1(N(CCCl)CCCl)N[C@H](OO)CCO1 [4-Hydroperoxy cyclophosphamide] the CC50 at 24 h was > 50 µM.

same assay, conditions: rat, gh3-tre-luc cells, AC50 (uM) modified / 1000, Tox21_110001=Tox21_300595; viability, 1 nM T3 present, 24 h

In the case of O=C(O)C(F)(F)C(F)(F)C(F)(F)C(F)(F)C(F)(F)C(F)(F)C(F)(F)F [Ammonium perfluorooctanoate], the CC50 at 24 h is reported as > 90 µM.

same assay, conditions: rat, gh3-tre-luc cells, AC50 (uM) modified / 1000, Tox21_110001=Tox21_301758; viability, 1 nM T3 present, 24 h

With OCCSCSCCO [2,2'-(Methanediyldisulfanediyl)diethanol] the CC50 at 24 h was > 90 µM.

From PMC6792352, “Limited Chemical Structural Diversity Found to Modulate Thyroid Hormone Receptor in the Tox21 Chemical Library” (Environmental Health Perspectives, 2019)
